In ChEMBL document CHEMBL1126444, “Synthesis and structure-activity relationships of heterocyclic analogues of the functional M1 selective muscarinic agonist hexyloxy-TZTP” (Bioorg Med Chem Lett, 1992) one finds IC50 and Inhibition data, which are given here for ten compounds.

The target of assay [1] is Muscarinic acetylcholine receptor. The assay is described as follows: Displacement of [3H]-OXO-M (oxotremorine-M) from the central muscarinic receptor sites of the rat brain membranes. The format is cell membranes, Membrane.
The species named for assay [2] is Oryctolagus cuniculus. The assay can be described thus: Percent maximum inhibition of the twitch response in the electrically stimulated rabbit vas deferens was determined. The format is functional.
The target in assay [3] is T1, Muscarinic acetylcholine receptor M1 (Rattus norvegicus, UniProt P08482).
T1 sequence (P08482 whole entry): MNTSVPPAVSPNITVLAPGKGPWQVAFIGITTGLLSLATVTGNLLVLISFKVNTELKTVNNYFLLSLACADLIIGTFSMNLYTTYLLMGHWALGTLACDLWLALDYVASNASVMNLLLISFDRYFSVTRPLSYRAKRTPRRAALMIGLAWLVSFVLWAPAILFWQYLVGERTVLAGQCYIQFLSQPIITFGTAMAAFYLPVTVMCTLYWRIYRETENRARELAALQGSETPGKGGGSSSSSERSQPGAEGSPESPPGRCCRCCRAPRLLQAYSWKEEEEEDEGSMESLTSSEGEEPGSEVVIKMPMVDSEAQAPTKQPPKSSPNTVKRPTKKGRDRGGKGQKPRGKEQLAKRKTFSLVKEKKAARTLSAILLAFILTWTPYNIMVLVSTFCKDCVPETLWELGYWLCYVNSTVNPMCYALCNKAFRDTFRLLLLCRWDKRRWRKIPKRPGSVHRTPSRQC
The assay can be described thus: Displacement of [3H]-Pz (pirenzepine) from the muscarinic receptor M1 of the rat hippocampus. Type of assay: tissue-based. (In general: Displacement assays read how much labelled ligand stays bound in the presence of the test substance.)

For assay [4], the species on record is Oryctolagus cuniculus. The assay can be described thus: Compound was evaluated for the inhibition of the twitch response in the electrically stimulated rabbit vas deferens. Type of assay: functional.

By IC50 is commonly meant the concentration that inhibits the measured activity by half. As a reminder, the Inhibition is the change of the read-out against control, counted positive when it falls. Low readings indicate a response near the control, high ones a response far below the control.

Bounds are passed on as bounds.

In the case of `CCCCOc1nsnc1C1=CCCN(C)C1`, in assay [1], the IC50 worked out at 1.4 nM.

For `CCCCCCOc1nscc1C1=CCCN(C)C1`, the Inhibition in assay [2] is 43%. In addition, the values for the IC50 in assay [1] and in assay [3] were over 900 nM and 715 nM, respectively.

The compound `CCCCOc1noc(C)c1C1=CCCN(C)C1` yielded an IC50 in assay [1] of 759 nM.

Turning to `CCCCCCOc1cscc1C1=CCCN(C)C1`, the Inhibition in assay [2] amounted to 93%. The figures for the IC50 in assay [1], in assay [4] and in assay [3] were over 900 nM, 39000 nM and 663 nM, respectively.

Consider `CCCCOc1nscc1C1=CCCN(C)C1`, for which, in assay [2], the Inhibition is 18%. In addition, the half-maximal inhibitory concentration (IC50) in assay [1] was found to be 544 nM; in assay [3], 565 nM.

The compound `CCCCOc1cscc1C1=CCCN(C)C1` came in with an Inhibition in assay [2] of 18%. Also, the results for the IC50 in assay [1] and in assay [3] were 477 nM and 369 nM, respectively.

For the compound `C[N+](C)(C)CC#CCOC(=O)Nc1cccc(Cl)c1.[Cl-]`, the Inhibition in assay [2] stood at 91%. The compound further showed an IC50 in assay [1] of 355 nM.

In turn, `CCCCCCOc1nonc1C1=CCCN(C)C1` returned an Inhibition in assay [2] of 47%. Besides, the IC50 in assay [1] amounted to 70 nM.

`CCCCOc1nonc1C1=CCCN(C)C1`: in assay [2], the Inhibition is 12%. The compound also had an IC50 in assay [1] of 24 nM.

`CCCCCCOc1nsnc1C1=CCCN(C)C1` [XANOMELINE] gave an Inhibition in assay [2] of 88%.
